Tests used:
Type in all cases: in vivo
[1] = test system: Coptotermes formosanus Shiraki; experiment: Test Example 1: effect of agent on gypsum treated with test agent solution; details: dicloromezotiaz 0.023%, imidacloprid 0.1%, fipronil 0.03% test agent solution on gypsum
Method: A test agent solution containing 0.023 parts of dicloromezotiaz was prepared by adding 99.875 parts of water to 0.125 parts of the aqueous suspension composition shown in Formulation Example 1.
In a comparative example, an aqueous suspension composition prepared by adding an agent solution, wherein 99 parts of water was added to 1 part of a flowable containing 10.0 parts of imidacloprid and which contained 0.1 parts of imidacloprid and a drug solution, wherein 299 parts of water was added to 1 part of a flowable containing 9.1 parts of fipronil and which contained 0.03 parts of fipronil, uniformly mixing same was used as a test agent solution of a comparative example.
As the imidacloprid formulation and the fipronil formulation, commercially available termite controlling agents were used and diluted solutions at practical agent concentrations thereof were used as test agent solutions.
Gypsum was cured and spread in a glass petri dish having a diameter of 90 mm, 15 ml of each of the test agent solution of the example and the test agent solution of the comparative example was uniformly dropped on the entire surface of the gypsum. Thereafter, ten workers of Coptotermes formosanus Shiraki were released into the petri dish and the petri dish was covered and left to stand in a thermostatic chamber (25° C./relative humidity 60%).
The number of abnormal termites and the number of dead termites among the released termites (Coptotermes formosanus Shiraki) were observed every one hour from immediately after the release of the termites (Coptotermes formosanus Shiraki) until ten hours passed and the total number of the abnormal termite rate and the dead termite rate was calculated as the abnormal or dead termite rate (%) according to [Expression 1] below and the rates of expression of the effects of the respective agents were compared. Each test agent was prepared in one petri dish as one plot and the test was carried out in two replicates.

[2] = test system: Coptotermes formosanus Shiraki; experiment: Test Example 3: extirpation test with dust formulation using simulated termite trails; details: active ingredient concentration 0.5%
[3] = test system: Coptotermes formosanus Shiraki; experiment: Test Example 2: secondary transmission treatment effect; details: Table 5, dicloromezotiaz 0.023%, fipronil 0.03%, imidacloprid 0.10%, chlorantraniliprole 0.05% solution in soil
Method: (§1) A test agent solution containing 0.023 parts of dicloromezotiaz was prepared by adding 99.875 parts of water to 0.125 parts of the aqueous suspension composition shown in Formulation Example 1. As comparative examples, four types of commercially available neonicotinoid termite controlling agents and four types of slow-acting termite controlling agents shown in Table 2 were diluted with water at practical concentrations to prepare test agent solutions. The “agent concentration (%)” indicates the concentration of the active ingredient contained in each of the composition of the present invention and the termite controlling agents and the “test agent solution concentration (%)” indicates the concentration of the active ingredient in each of the prepared test agent solutions.
(§2) After 1.2 g of each of the test agent solutions of the example and the comparative examples diluted to a predetermined concentration and prepared was added to 4.8 g of soil, 6 g of the mixed soil was spread in a glass petri dish having a diameter of 50 mm and ten workers of Coptotermes formosanus Shiraki were released into the petri dish and exposed to the agent solution for 4 hours.

[4] = test system: Coptotermes formosanus Shiraki; experiment: Test Example 2: primary transmission treatment effect; details: Table 3, dicloromezotiaz 0.023%, fipronil 0.03%, imidacloprid 0.10%, chlorantraniliprole 0.05% solution in soil
Method: as §1, §2

Row | SMILES | Abnormal or dead termite rate (%) ([1]; time elapsed 1 h) | Abnormal or dead termite rate (%) ([1]; time elapsed 2 h) | Abnormal or dead termite rate (%) ([1]; time elapsed 3 h) | Abnormal or dead termite rate (%) ([1]; time elapsed 4 h) | Abnormal or dead termite rate (%) ([1]; time elapsed 5 h) | Abnormal or dead termite rate (%) ([1]; time elapsed 6 h) | Abnormal or dead termite rate (%) ([1]; time elapsed 7 h) | Abnormal or dead termite rate (%) ([1]; time elapsed 8 h) | Abnormal or dead termite rate (%) ([1]; time elapsed 9 h) | Abnormal or dead termite rate (%) ([1]; time elapsed 10 h) | Abnormal or dead termite rate (%) ([3]; after 1 day) | Abnormal or dead termite rate (%) ([3]; after 3 days) | Abnormal or dead termite rate (%) ([3]; after 7 days) | Abnormal or dead termite rate (%) ([3]; after 14 days) | Abnormal or dead termite rate (%) ([3]; after 21 days) | Abnormal or dead termite rate (%) ([4]; after 1 day) | Abnormal or dead termite rate (%) ([4]; after 3 days) | Abnormal or dead termite rate (%) ([4]; after 7 days) | Abnormal or dead termite rate (%) ([4]; after 14 days) | Abnormal or dead termite rate (%) ([4]; after 21 days) | other results
1 | N#Cc1nn(-c2c(Cl)cc(C(F)(F)F)cc2Cl)c(N)c1[S+]([O-])C(F)(F)F (stereo not drawn) [Fipronil] | 18 | 36 | 52 | 100 | 100 | 100 | 100 | 100 | 100 | 100 | 0 | 0 | 19 | 30 | 31 | 82 | 95 | 100 | 100 | 100 | Abnormal or dead termite rate (%) ([2]; 1 h): 0%; Abnormal or dead termite rate (%) ([2]; 2 h): 5%; Abnormal or dead termite rate (%) ([2]; 3 h): 50%; Abnormal or dead termite rate (%) ([2]; 4 h): 95%; Abnormal or dead termite rate (%) ([2]; 5 h): 95%; Abnormal or dead termite rate (%) ([2]; 6 h): 100%; Abnormal or dead termite rate (%) ([2]; 7 h): 100%; Abnormal or dead termite rate (%) ([2]; 1 day): 100%; Abnormal or dead termite rate (%) ([2]; 2 days): 100%; Abnormal or dead termite rate (%) ([2]; 3 days): 100%; Abnormal or dead termite rate (%) ([2]; 7 days): 100%
2 | O=[N+]([O-])NC1=NCCN1Cc1ccc(Cl)nc1 [Imidacloprid] | 100 | 100 | 100 | 100 | 100 | 100 | 100 | 100 | 100 | 100 | 0 | 1.1 | 1.1 | 1.1 | 1.2 | 92 | 22 | 11 | 14 | 15 | –

From patent US20250255304A1, “HIGHLY TRA[…] CONTROLLING COMPOSITION” (ZM Crop Protection Corporation, priority 2022, published 2025)
